Converted amounts (≈) assume the structure as drawn.
What was measured:
Malme-3M = test: Cytotoxicity against human MALME-3M cells; assay type: functional; conditions: for TGI: read-out: pTGI (converted)
[1] = Cytotoxicity against human Hs 578T cells; assay type: functional; conditions: for CC50: read-out: pLC50 (the source's name) (converted); for TGI: read-out: pTGI (converted)
RPMI-8226 = test: Cytotoxicity against human RPMI8226 cells; assay type: functional; conditions: for TGI: read-out: pTGI (converted)
CAKI-1 = test: Cytotoxicity against human Caki1 cells; assay type: functional; conditions: for TGI: read-out: pTGI (converted)
T47D = test: Cytotoxicity against human T47D cells; assay type: functional; conditions: for CC50: read-out: pLC50 (the source's name) (converted); for TGI: read-out: pTGI (converted)
SK-MEL-28 = test: Cytotoxicity against human SK-MEL-28 cells; assay type: functional; conditions: for TGI: read-out: pTGI (converted)
SF-539 = test: Cytotoxicity against human SF539 cells; assay type: functional; conditions: for TGI: read-out: pTGI (converted)
OVCAR-8 = test: Cytotoxicity against human OVCAR8 cells; assay type: functional; conditions: for TGI: read-out: pTGI (converted)
A549 [2] = test: Cytotoxicity against human A549 cells after 1 hr compound washout; assay type: functional, cell-based; conditions: A549, 1 h
[3] = Cytotoxicity against human 786-O cells; assay type: functional; conditions: for GI50 / LC50: 786-0; for TGI: 786-0, read-out: pTGI (converted)
RXF 393 = test: Cytotoxicity against human RXF393 cells; assay type: functional; conditions: for TGI: read-out: pTGI (converted)
HT-29 = test: Cytotoxicity against human HT-29 cells; assay type: functional; conditions: for TGI: read-out: pTGI (converted)
OVCAR-3 = test: Cytotoxicity against human OVCAR-3 cells; assay type: functional; conditions: for TGI: read-out: pTGI (converted)
SF-268 = test: Cytotoxicity against human SF268 cells; assay type: functional; conditions: for TGI: read-out: pTGI (converted)
MCF7 [4] = test: Cytotoxicity against human doxorubicin-resistant MCF7 cells; assay type: functional; conditions: for CC50: read-out: pLC50 (the source's name) (converted); for TGI: read-out: pTGI (converted)
A498 = test: Cytotoxicity against human A498 cells; assay type: functional; conditions: for TGI: read-out: pTGI (converted)
MCF7 [5] = test: Cytotoxicity against human MCF7 cells; assay type: functional; conditions: for CC50: read-out: pLC50 (the source's name) (converted); for TGI: read-out: pTGI (converted)
K562 = test: Cytotoxicity against human K562 cells; assay type: functional; conditions: for TGI: read-out: pTGI (converted)
OVCAR-5 = test: Cytotoxicity against human OVCAR5 cells; assay type: functional; conditions: for TGI: read-out: pTGI (converted)
A549 [6] = test: Cytotoxicity against human A549 cells after 1 hr; assay type: functional, cell-based; conditions: A549, 1 h

## CC(C)=CCC/C(C)=C/Cc1c(O)cc(/C=C/c2cc(O)c3c(c2)C[C@@H]2C(C)(C)[C@H](O)[C@H](O)C[C@@]2(C)O3)cc1O [SCHWEINFURTHIN A]
Malme-3M
  GI50: 4.27 µM
  LC50: 53.7 µM
  TGI: 20 µM
[1]
  GI50: 0.01 µM
  CC50: 87.1 µM
  TGI: 0.759 µM
RPMI-8226
  GI50: 0.01 µM
  LC50: 75.9 µM
  TGI: 0.0209 µM
CAKI-1
  GI50: 0.129 µM
  LC50: 56.2 µM
  TGI: 19.1 µM
T47D
  GI50: 3.24 µM
  CC50: 97.7 µM
  TGI: 21.9 µM
SK-MEL-28
  GI50: 4.57 µM
  LC50: 60.3 µM
  TGI: 24 µM
SF-539
  GI50: 0.01 µM
  LC50: 8.13 µM
  TGI: 1.7 µM
OVCAR-8
  GI50: 5.13 µM
  LC50: 57.5 µM
  TGI: 20 µM
A549 [2]
  IC50: 20 µg/mL (≈ 36.4 µM)
[3]
  GI50: 0.01 µM
  LC50: 19.1 µM
  TGI: 3.02 µM
RXF 393
  GI50: 0.01 µM
  LC50: 55 µM
  TGI: 2.09 µM
HT-29
  GI50: 0.309 µM
  LC50: 5.5 µM
  TGI: 2.4 µM
OVCAR-3
  GI50: 3.09 µM
  LC50: 21.9 µM
  TGI: 7.94 µM
SF-268
  GI50: 2.4 µM
  LC50: 74.1 µM
  TGI: 20.9 µM
MCF7 [4]
  GI50: 3.8 µM
  CC50: 41.7 µM
  TGI: 12.9 µM
A498
  GI50: 4.17 µM
  LC50: 61.7 µM
  TGI: 22.9 µM
MCF7 [5]
  GI50: 0.0269 µM
  CC50: 85.1 µM
  TGI: 8.13 µM
K562
  GI50: 0.0646 µM
  LC50: 72.4 µM
  TGI: 14.1 µM
OVCAR-5
  GI50: 6.46 µM
  LC50 (concentration killing 50% of cells): 45.7 µM
  TGI: 20 µM
A549 [6]
  IC50: 43 µg/mL (≈ 78.4 µM)

## COc1cc(/C=C/c2cc(O)c(C/C=C(\C)CCC=C(C)C)c(O)c2)cc2c1O[C@]1(C)C[C@@H](O)[C@@H](O)C(C)(C)[C@H]1C2 [SCHWEINFURTHIN B]
Malme-3M
  GI50: 8.71 µM
  LC50: 69.2 µM
  TGI: 26.9 µM
[1]
  GI50: 0.0199 µM
  CC50: > 100 µM
  TGI: 1.1 µM
RPMI-8226
  GI50: 0.0151 µM
  LC50: 12 µM
  TGI: 0.11 µM
CAKI-1
  GI50: 1.91 µM
  LC50: 75.9 µM
  TGI: 28.8 µM
T47D
  GI50: 11 µM
  CC50: > 100 µM
  TGI: 69.2 µM
SK-MEL-28
  GI50: 1.1 µM
  LC50: 52.5 µM
  TGI: 12.9 µM
SF-539
  GI50: 0.151 µM
  LC50: 14.1 µM
  TGI: 2 µM
OVCAR-8
  GI50: 11 µM
  LC50: 64.6 µM
  TGI: 26.9 µM
A549 [2]
  IC50: 80 µg/mL (≈ 142 µM)
[3]
  GI50: 0.0219 µM
  LC50: 14.1 µM
  TGI: 1.91 µM
RXF 393
  GI50: 0.01 µM
  LC50: 7.08 µM
  TGI: 0.269 µM
HT-29
  GI50: 0.372 µM
  LC50: 5.5 µM
  TGI: 2.09 µM
OVCAR-3
  GI50: 3.89 µM
  LC50: 42.7 µM
  TGI: 12.9 µM
SF-268
  GI50: 4.37 µM
  LC50: 75.9 µM
  TGI: 24 µM
MCF7 [4]
  GI50: 6.92 µM
  CC50: 75.9 µM
  TGI: 30.2 µM
A498
  GI50: 1.7 µM
  LC50: 44.7 µM
  TGI: 17 µM
MCF7 [5]
  GI50: 0.2 µM
  CC50: 38.9 µM
  TGI: 6.03 µM
K562
  GI50: 0.347 µM
  LC50: 36.3 µM
  TGI: 6.17 µM
OVCAR-5
  GI50: 7.08 µM
  LC50 (concentration killing 50% of cells): 44.7 µM
  TGI: 19.1 µM
A549 [6]
  IC50: > 100 µg/mL

Source: ChEMBL document CHEMBL1151324, “Cytotoxic geranyl stilbenes from Macaranga schweinfurthii” (J Nat Prod, 1998)
